Values after ≈ are worked out from the molar mass of the structure shown.
Assays:
A549 [1] = experiment: Cytotoxicity against human A549 cells after 1 hr; type: functional, cell-based; conditions: A549, 1 h
A549 [2] = experiment: Cytotoxicity against human A549 cells after 1 hr compound washout; type: functional, cell-based; conditions: A549, 1 h
SF-295 [3] = experiment: Cytotoxicity against human SF295 cells after 1 hr; type: functional, cell-based; conditions: SF-295, 1 h
SF-295 [4] = experiment: Cytotoxicity against human SF295 cells after 1 hr compound washout; type: functional, cell-based; conditions: SF-295, 1 h
SF-295 [5] = experiment: Cytotoxicity against human SF295 cells after 48 hrs; type: functional, cell-based; conditions: SF-295, 48 h
HL-60 = experiment: Cytotoxicity against human HL60 cells; type: functional
MOLT-4 = experiment: Cytotoxicity against human MOLT4 cells; type: functional
RPMI-8226 = experiment: Cytotoxicity against human RPMI8226 cells; type: functional
SR = experiment: Cytotoxicity against human SR cells; type: functional
EKVX = experiment: Cytotoxicity against human EKVX cells; type: functional
HOP-62 = experiment: Cytotoxicity against human HOP62 cells; type: functional
NCI-H322M = experiment: Cytotoxicity against human NCI-H322M cells; type: functional
NCI-H460 = experiment: Cytotoxicity against human NCI-H460 cells; type: functional
NCI-H522 = experiment: Cytotoxicity against human NCI-H522 cells; type: functional
COLO 205 = experiment: Cytotoxicity against human COLO205 cells; type: functional
HCT-116 = experiment: Cytotoxicity against human HCT116 cells; type: functional
HCT-15 = experiment: Cytotoxicity against human HCT15 cells; type: functional
HT-29 = experiment: Cytotoxicity against human HT-29 cells; type: functional
SW-620 = experiment: Cytotoxicity against human SW620 cells; type: functional
SF-268 = experiment: Cytotoxicity against human SF268 cells; type: functional
SF-295 [6] = experiment: Cytotoxicity against human SF295 cells; type: functional
SF-539 = experiment: Cytotoxicity against human SF539 cells; type: functional
SNB-19 = experiment: Cytotoxicity against human SNB19 cells; type: functional
SNB-75 = experiment: Cytotoxicity against human SNB75 cells; type: functional
U-251 = experiment: Cytotoxicity against human U251 cells; type: functional
Malme-3M = experiment: Cytotoxicity against human MALME-3M cells; type: functional
M14 = experiment: Cytotoxicity against human M14 cells; type: functional
SK-MEL-2 = experiment: Cytotoxicity against human SK-MEL-2 cells; type: functional
SK-MEL-28 = experiment: Cytotoxicity against human SK-MEL-28 cells; type: functional
SK-MEL-5 = experiment: Cytotoxicity against human SK-MEL-5 cells; type: functional
UACC-257 = experiment: Cytotoxicity against human UACC257 cells; type: functional
OVCAR-4 = experiment: Cytotoxicity against human OVCAR4 cells; type: functional
OVCAR-5 = experiment: Cytotoxicity against human OVCAR5 cells; type: functional
SK-OV-3 = experiment: Cytotoxicity against human SKOV3 cells; type: functional
[7] = Cytotoxicity against human 786-O cells; type: functional
ACHN = experiment: Cytotoxicity against human ACHN cells; type: functional
CAKI-1 = experiment: Cytotoxicity against human Caki1 cells; type: functional
RXF 393 = experiment: Cytotoxicity against human RXF393 cells; type: functional
UO-31 = experiment: Cytotoxicity against human UO31 cells; type: functional
PC-3 = experiment: Cytotoxicity against human PC3 cells; type: functional
DU-145 = experiment: Cytotoxicity against human DU145 cells; type: functional
MCF7 [8] = experiment: Cytotoxicity against human MCF7 cells; type: functional
MCF7 [9] = experiment: Cytotoxicity against human doxorubicin-resistant MCF7 cells; type: functional
[10] = Cytotoxicity against human Hs 578T cells; type: functional
MDA-MB-435 = experiment: Cytotoxicity against human MDA-MB-435 cells; type: functional
BT-549 = experiment: Cytotoxicity against human BT549 cells; type: functional
T47D = experiment: Cytotoxicity against human T47D cells; type: functional
[11] = read-out: pLC50 (the source's name) (converted)

SMILES: COc1cc(/C=C/c2cc(O)c(C/C=C(\C)CCC=C(C)C)c(O)c2)cc2c1O[C@]1(C)C[C@@H](O)[C@@H](O)C(C)(C)[C@H]1C2 [SCHWEINFURTHIN B]
- IC50 (A549 [1]): > 100 µg/mL
- IC50 (A549 [2]): 80 µg/mL (≈ 142 µM)
- IC50 (SF-295 [3]): > 100 µg/mL
- IC50 (SF-295 [4]): 2.9 µg/mL (≈ 5.15 µM)
- IC50 (SF-295 [5]): 0.009 µg/mL (≈ 0.016 µM)
- GI50 (HL-60): 0.0372 µM
- LC50 (HL-60): > 100 µM
- TGI (HL-60; read-out: pTGI (converted)): 1.29 µM
- GI50 (MOLT-4): 0.0479 µM
- LC50 (MOLT-4): 11 µM
- TGI (MOLT-4; read-out: pTGI (converted)): 5.25 µM
- GI50 (RPMI-8226): 0.0151 µM
- LC50 (RPMI-8226): 12 µM
- TGI (RPMI-8226; read-out: pTGI (converted)): 0.11 µM
- GI50 (SR): 0.257 µM
- LC50 (SR): 58.9 µM
- TGI (SR; read-out: pTGI (converted)): 12 µM
- GI50 (EKVX): 0.933 µM
- LC50 (EKVX): 38 µM
- TGI (EKVX; read-out: pTGI (converted)): 14.1 µM
- GI50 (HOP-62): 0.851 µM
- LC50 (HOP-62): 40.7 µM
- TGI (HOP-62; read-out: pTGI (converted)): 14.1 µM
- GI50 (NCI-H322M): 3.39 µM
- LC50 (NCI-H322M): 42.7 µM
- TGI (NCI-H322M; read-out: pTGI (converted)): 17 µM
- GI50 (NCI-H460): 0.269 µM
- LC50 (NCI-H460): 57.5 µM
- TGI (NCI-H460; read-out: pTGI (converted)): 12.9 µM
- GI50 (NCI-H522): 3.02 µM
- LC50 (NCI-H522): 39.8 µM
- TGI (NCI-H522; read-out: pTGI (converted)): 17 µM
- GI50 (COLO 205): 0.617 µM
- LC50 (COLO 205): 6.76 µM
- TGI (COLO 205; read-out: pTGI (converted)): 2.4 µM
- GI50 (HCT-116): 0.575 µM
- LC50 (HCT-116): 22.9 µM
- TGI (HCT-116; read-out: pTGI (converted)): 6.61 µM
- GI50 (HCT-15): 1.91 µM
- LC50 (HCT-15): 33.9 µM
- TGI (HCT-15; read-out: pTGI (converted)): 6.92 µM
- GI50 (HT-29): 0.372 µM
- LC50 (HT-29): 5.5 µM
- TGI (HT-29; read-out: pTGI (converted)): 2.09 µM
- GI50 (SW-620): 0.676 µM
- LC50 (SW-620): 17 µM
- TGI (SW-620; read-out: pTGI (converted)): 3.09 µM
- GI50 (SF-268): 4.37 µM
- LC50 (SF-268): 75.9 µM
- TGI (SF-268; read-out: pTGI (converted)): 24 µM
- LC50 (SF-295 [6]): 3.89 µM
- GI50 (SF-295 [6]; read-out: pGI50 (converted)): 0.024 µM
- TGI (SF-295 [6]; read-out: pTGI (converted)): 0.288 µM
- GI50 (SF-539): 0.151 µM
- LC50 (SF-539): 14.1 µM
- TGI (SF-539; read-out: pTGI (converted)): 2 µM
- GI50 (SNB-19): 0.398 µM
- LC50 (SNB-19): 40.7 µM
- TGI (SNB-19; read-out: pTGI (converted)): 15.8 µM
- GI50 (SNB-75): 0.0251 µM
- LC50 (SNB-75): 60.3 µM
- TGI (SNB-75; read-out: pTGI (converted)): 1.82 µM
- GI50 (U-251): 0.2 µM
- LC50 (U-251): 49 µM
- TGI (U-251; read-out: pTGI (converted)): 24 µM
- GI50 (Malme-3M): 8.71 µM
- LC50 (Malme-3M): 69.2 µM
- TGI (Malme-3M; read-out: pTGI (converted)): 26.9 µM
- GI50 (M14): 0.141 µM
- LC50 (M14): 4.17 µM
- TGI (M14; read-out: pTGI (converted)): 1.2 µM
- GI50 (SK-MEL-2): 1.82 µM
- LC50 (SK-MEL-2): 46.8 µM
- TGI (SK-MEL-2; read-out: pTGI (converted)): 17 µM
- GI50 (SK-MEL-28): 1.1 µM
- LC50 (SK-MEL-28): 52.5 µM
- TGI (SK-MEL-28; read-out: pTGI (converted)): 12.9 µM
- GI50 (SK-MEL-5): 0.209 µM
- LC50 (SK-MEL-5): 28.8 µM
- TGI (SK-MEL-5; read-out: pTGI (converted)): 8.91 µM
- GI50 (UACC-257): 5.75 µM
- LC50 (UACC-257): 46.8 µM
- TGI (UACC-257; read-out: pTGI (converted)): 20.9 µM
- GI50 (OVCAR-4): 12 µM
- LC50 (OVCAR-4): 77.6 µM
- TGI (OVCAR-4; read-out: pTGI (converted)): 50.1 µM
- GI50 (OVCAR-5): 7.08 µM
- LC50 (concentration killing 50% of cells) (OVCAR-5): 44.7 µM
- TGI (OVCAR-5; read-out: pTGI (converted)): 19.1 µM
- GI50 (SK-OV-3): 2.57 µM
- LC50 (SK-OV-3): 40.7 µM
- TGI (SK-OV-3; read-out: pTGI (converted)): 15.8 µM
- GI50 ([7]; 786-0): 0.0219 µM
- LC50 ([7]; 786-0): 14.1 µM
- TGI ([7]; 786-0, read-out: pTGI (converted)): 1.91 µM
- GI50 (ACHN): 4.27 µM
- LC50 (ACHN): 43.7 µM
- TGI (ACHN; read-out: pTGI (converted)): 20 µM
- GI50 (CAKI-1): 1.91 µM
- LC50 (CAKI-1): 75.9 µM
- TGI (CAKI-1; read-out: pTGI (converted)): 28.8 µM
- GI50 (RXF 393): 0.01 µM
- LC50 (RXF 393): 7.08 µM
- TGI (RXF 393; read-out: pTGI (converted)): 0.269 µM
- GI50 (UO-31): 0.0759 µM
- LC50 (UO-31): 5.25 µM
- TGI (UO-31; read-out: pTGI (converted)): 0.912 µM
- GI50 (PC-3): 0.251 µM
- CC50 (PC-3; [11]): 42.7 µM
- TGI (PC-3; read-out: pTGI (converted)): 12.9 µM
- GI50 (DU-145): 3.39 µM
- CC50 (DU-145; [11]): 50.1 µM
- TGI (DU-145; read-out: pTGI (converted)): 19.1 µM
- GI50 (MCF7 [8]): 0.2 µM
- CC50 (MCF7 [8]; [11]): 38.9 µM
- TGI (MCF7 [8]; read-out: pTGI (converted)): 6.03 µM
- GI50 (MCF7 [9]): 6.92 µM
- CC50 (MCF7 [9]; [11]): 75.9 µM
- TGI (MCF7 [9]; read-out: pTGI (converted)): 30.2 µM
- GI50 [10]: 0.0199 µM
- CC50 [10, 11]: > 100 µM
- TGI ([10]; read-out: pTGI (converted)): 1.1 µM
- GI50 (MDA-MB-435): 7.59 µM
- CC50 (MDA-MB-435; [11]): 72.4 µM
- TGI (MDA-MB-435; read-out: pTGI (converted)): 33.1 µM
- GI50 (BT-549): 11 µM
- CC50 (BT-549; [11]): 83.2 µM
- TGI (BT-549; read-out: pTGI (converted)): 39.8 µM
- GI50 (T47D): 11 µM
- CC50 (T47D; [11]): > 100 µM
- TGI (T47D; read-out: pTGI (converted)): 69.2 µM

Source: ChEMBL document CHEMBL1151324, “Cytotoxic geranyl stilbenes from Macaranga schweinfurthii” (J Nat Prod, 1998)
